The record followed here is patent publication US20220071971A1, “MACROCYCLIC COMPOUNDS AND THEIR USE IN THE TREATMENT OF DISEASE” (NOVARTIS AG, priority 2018, published 2022).

The target in this assay is T1, delF508-CFTR (Homo sapiens, UniProt P13569, DEL508-508).
T1 construct: expressed in transfected cells
The experiment in a line: Measurement of delF508-CFTR-HRP surface expression in CFBE41o- cells. In kind it is cell-based. Conditions: for Emax: CFBE41o-, efficacy relative to reference compound 3-(6-(1-(2,2-difluorobenzo[d][1,3]dioxol-5-yl)cyclopropane-1-carboxamido)-3-methylpyridin-2-yl)benzoic acid, read-out: DelF508-CFTR-HRP Amax %; for EC50: HRP-tagged delF508-CFTR surface expression, CFBE41o- cells, 24 h with compound, 10-point curve, highest concentration 10 μM. In short, it runs like this: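 CFBE41o- cells stably expressing delF508-CFTR with HRP in the fourth extracellular loop, induced 48 h with 500 ng/mL doxycycline, then exposed to compound (10-point, 3-fold, top 10 μM, ≤0.5% DMSO) for 24 h at 37° C. Surface HRP read by luminescence with cell-impermeant substrate; EC50 by logistic fit, triplicates, efficacy relative to reference corrector.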

For orientation: EC50 means the concentration needed to bring the measured effect to its halfway point.

T1 sequence (P13569 with tags, fused parts or gaps DEL508-508): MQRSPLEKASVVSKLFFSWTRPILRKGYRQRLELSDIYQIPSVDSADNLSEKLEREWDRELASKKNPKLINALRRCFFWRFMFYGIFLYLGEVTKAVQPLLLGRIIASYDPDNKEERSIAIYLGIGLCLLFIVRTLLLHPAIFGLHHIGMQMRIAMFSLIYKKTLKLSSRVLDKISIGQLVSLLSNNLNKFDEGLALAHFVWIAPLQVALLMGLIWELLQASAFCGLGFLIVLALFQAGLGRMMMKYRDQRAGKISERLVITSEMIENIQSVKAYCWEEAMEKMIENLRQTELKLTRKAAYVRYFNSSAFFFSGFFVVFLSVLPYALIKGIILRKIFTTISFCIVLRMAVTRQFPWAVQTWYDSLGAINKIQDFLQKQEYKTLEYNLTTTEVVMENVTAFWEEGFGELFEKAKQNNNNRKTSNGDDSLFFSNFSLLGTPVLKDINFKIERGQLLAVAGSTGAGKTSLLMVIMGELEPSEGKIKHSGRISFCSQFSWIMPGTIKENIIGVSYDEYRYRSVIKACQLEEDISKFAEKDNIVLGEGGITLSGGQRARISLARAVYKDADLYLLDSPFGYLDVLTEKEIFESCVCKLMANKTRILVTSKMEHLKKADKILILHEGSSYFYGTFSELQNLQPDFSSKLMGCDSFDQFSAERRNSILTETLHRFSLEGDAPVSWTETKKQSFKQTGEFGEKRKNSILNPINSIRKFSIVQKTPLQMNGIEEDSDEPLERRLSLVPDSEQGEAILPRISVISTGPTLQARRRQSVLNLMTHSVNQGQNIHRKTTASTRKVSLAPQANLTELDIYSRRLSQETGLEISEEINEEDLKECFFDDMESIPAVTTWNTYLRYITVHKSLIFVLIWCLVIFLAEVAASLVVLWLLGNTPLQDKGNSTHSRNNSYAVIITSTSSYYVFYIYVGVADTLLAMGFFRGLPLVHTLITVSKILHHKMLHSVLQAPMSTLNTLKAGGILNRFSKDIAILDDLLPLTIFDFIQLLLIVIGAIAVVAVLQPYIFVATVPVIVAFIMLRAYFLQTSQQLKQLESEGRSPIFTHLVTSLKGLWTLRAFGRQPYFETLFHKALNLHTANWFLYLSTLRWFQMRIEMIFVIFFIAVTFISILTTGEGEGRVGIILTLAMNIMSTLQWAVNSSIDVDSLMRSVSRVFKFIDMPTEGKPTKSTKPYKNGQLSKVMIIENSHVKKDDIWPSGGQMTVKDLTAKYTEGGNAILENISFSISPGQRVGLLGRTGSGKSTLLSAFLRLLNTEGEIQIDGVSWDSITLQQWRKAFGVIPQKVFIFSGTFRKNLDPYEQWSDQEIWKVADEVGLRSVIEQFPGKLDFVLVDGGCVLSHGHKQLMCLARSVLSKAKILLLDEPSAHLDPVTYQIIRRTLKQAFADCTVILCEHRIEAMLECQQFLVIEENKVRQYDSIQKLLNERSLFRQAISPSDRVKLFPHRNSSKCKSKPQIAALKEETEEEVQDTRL

Consider `CN1CCCCCCN(C)c2ncccc2-c2nc(ccc2C(F)(F)F)NS(=O)(=O)c2cccc1n2` [Compound 8, 6,13-dimethyl-2^3-(trifluoromethyl)-4-thia-3,6,13-triaza-1(3,2),2,5(2,6)-tripyridinacyclotridecaphane 4,4-dioxide], for which the Emax turned out to be 564% and the EC50 turned out to be 410 nM.

Regarding `O=S1(=O)Nc2ccc(C(F)(F)F)c(n2)-c2ccccc2CCCCCCN(CCCCCO)c2cccc1n2` [Compound 12, 6-(5-hydroxypentyl)-2^3-(trifluoromethyl)-4-thia-3,6-diaza-2,5(2,6)-dipyridina-1(1,2)-benzenacyclododecaphane 4,4-dioxide], the EC50 stood at 236 nM.

`O=C(O)CCCCCN1CCCCCc2ccccc2-c2nc(ccc2C(F)(F)F)NS(=O)(=O)c2cccc1n2` [Compound 70, 6-(4,4-dioxido-2^3-(trifluoromethyl)-4-thia-3,6-diaza-2,5(2,6)-dipyridina-1(1,2)-benzenacycloundecaphane-6-yl)hexanoic acid]: the Emax was 843% and the EC50 was 373 nM.

On to `O=S1(=O)Nc2ccc(C(F)(F)F)c(n2)-c2cc(F)ccc2OCCCCN(CCCCO)c2cccc1n2` [Compound 23, 1^5-fluoro-6-(4-hydroxybutyl)-2^3-(trifluoromethyl)-11-oxa-4-thia-3,6-diaza-2,5(2,6)-dipyridina-1(1,2)-benzenacycloundecaphane 4,4-dioxide], for which the Emax worked out at 592% and the EC50 worked out at 690 nM.

As to `O=S1(=O)Nc2ccc(C(F)(F)F)c(n2)-c2ccccc2CCCCCCCCN(CCCO)c2cccc1n2` [Compound 43, 6-(3-hydroxypropyl)-2^3-(trifluoromethyl)-4-thia-3,6-diaza-2,5(2,6)-dipyridina-1(1,2)-benzenacyclotetradecaphane 4,4-dioxide], the EC50 is 255 nM.

For `CCN1CCCCCc2ccccc2-c2nc(ccc2C(F)(F)F)NS(=O)(=O)c2cccc1n2` [Compound 18, 6-ethyl-2^3-(trifluoromethyl)-4-thia-3,6-diaza-2,5(2,6)-dipyridina-1(1,2)-benzenacycloundecaphane 4,4-dioxide], the Emax amounted to 802% and the EC50 is 645 nM.

For the compound `CCOC(=O)C(C)(C)CN1CCCCCCc2ccccc2-c2nc(ccc2C(F)(F)F)NS(=O)(=O)c2cccc1n2` [Compound 32, ethyl 3-(4,4-dioxido-2^3-(trifluoromethyl)-4-thia-3,6-diaza-2,5(2,6)-dipyridina-1(1,2)-benzenacyclododecaphane-6-yl)-2,2-dimethylpropanoate], the EC50 was 295 nM.

`O=S1(=O)Nc2ccc(C(F)(F)F)c(n2)-c2ccccc2CCCCCN(CCOCCCO)c2cccc1n2` [Compound 14, 6-(2-(3-hydroxypropoxy)ethyl)-2^3-(trifluoromethyl)-4-thia-3,6-diaza-2,5(2,6)-dipyridina-1(1,2)-benzenacycloundecaphane 4,4-dioxide]: the Emax was 489% and the EC50 was 334 nM.

For the compound `O=S1(=O)Nc2ccc(C(F)(F)F)c(n2)-c2ccccc2OCCCCN(CCO)c2cccc1n2` [Compound 2, 6-(2-hydroxyethyl)-2^3-(trifluoromethyl)-11-oxa-4-thia-3,6-diaza-2,5(2,6)-dipyridina-1(1,2)-benzenacycloundecaphane 4,4-dioxide], the Emax is 610% and the concentration giving a half-maximal response (EC50) worked out at 606 nM.

As to `O=S1(=O)Nc2ccc(Cl)c(n2)-c2ccccc2CCCCCOc2cccc1n2` [Compound 113, 2^3-chloro-6-oxa-4-thia-3-aza-2,5(2,6)-dipyridina-1(1,2)-benzenacycloundecaphane 4,4-dioxide], the Emax amounted to 664% and the EC50 came to 2150 nM.

Consider `O=C(O)CN1CCCCOc2ccccc2-c2nc(ccc2C(F)(F)F)NS(=O)(=O)c2cccc1n2` [Compound 4, 2-(4,4-dioxido-2^3-(trifluoromethyl)-11-oxa-4-thia-3,6-diaza-2,5(2,6)-dipyridina-1(1,2)-benzenacycloundecaphane-6-yl)acetic acid], for which the Emax turned out to be 74.4% and the EC50 worked out at 2870 nM.
